This is an account of results in patent US12532884B2, “Fungicidal compositions” (SYNGENTA CROP PROTECTION AG, priority 2020, dated 2026).

One assay deals with Phakopsora pachyrhizi. Put plainly: Example D: preventative activity against Phakopsora pachyrhizi on soybean (whole plants sprayed, leaf disks inoculated). Type of assay: in vivo. An excerpt: (§1) Certain mixture compositions comprising a compound of formula (I) described above may show a synergistic effect. This occurs whenever the action of an active ingredient combination is greater than the sum of the actions of the individual components. The action to be expected E for a given active ingredient combination obeys the so-called COLBY formula and can be calculated as follows (COLBY, S. R. “Calculating synergistic and antagonistic responses of herbicide combination”. Weeds, Vol. 15, pages 20-22; 1967): • ppm=milligrams of active ingredient (=a.i.) per liter of spray mixture • X=% action by active ingredient A) using p ppm of active ingredient • Y=% action by active ingredient B) using q ppm of active ingredient.
(§2) According to COLBY, the expected (additive) action of active ingredients A)+B) using p+q ppm of active ingredient is:
(§3) If the action actually observed (O) is greater than the expected action (E), then the action of the combination is super-additive, i.e. there is a synergistic effect. In mathematical terms, synergism corresponds to a positive value for the difference of (O-E). In the case of purely complementary addition of activities (expected activity), said difference (O-E) is zero. A negative value of said difference (O-E) signals a loss of activity compared to the expected activity.
Whole soybean plants are treated with the recited active ingredients 4 weeks after planting. 1 day after spraying leaf disks are cut from the first trifoliate leaf. Five repetitions at each rate are conducted. The leaf disks are inoculated with Phakopsora pachyrhizi (Asian soybean rust) one day after treatment. Evaluation of the leaf disks is conducted 11 to 14 days after inoculation and the activity is derived from the relation of the treated vs untreated, infested check. (100=no disease, no damage to the leaf, 0=high infestation, leaf damaged heavily). The rates of the active ingredients used are given in the tables as g active ingredient (a.i.)/ha.

In the next assay the test system is Septoria glycines. Put plainly: Example C3: mixtures against Septoria glycines (brown spot), liquid culture. The assay is classed as cell-based. The settings on record: single component; for inhibition at 0.1 ppm / inhibition at 0.3 ppm: Septoria glycines, read-out: Activity (%).
From the text: This occurs whenever the action of an active ingredient combination is greater than the sum of the actions of the individual components. The action to be expected E for a given active ingredient combination obeys the so-called COLBY formula and can be calculated as follows (COLBY, S. R. “Calculating synergistic and antagonistic responses of herbicide combination”. Weeds, Vol. 15, pages 20-22; 1967): • ppm=milligrams of active ingredient (=a.i.) per liter of spray mixture • X=% action by active ingredient A) using p ppm of active ingredient • Y=% action by active ingredient B) using q ppm of active ingredient.
as §2, §3
Mycelia fragments or conidia suspensions of a fungus prepared either freshly from liquid cultures of the fungus or from cryogenic storage, are directly mixed into nutrient broth. DMSO solutions of the test compound (max. 10 mg/mL) are diluted with 0.025% Tween20 by a factor of 50 and 10 μl of this solution is pipetted into a microtiter plate (96-well format). […] The test plates are incubated in the dark at 24° C. and 96% relative humidity. The inhibition of fungal growth is determined photometrically after 2 to 7 days, depending on the pathosystem, and percent antifungal activity relative to the untreated check is calculated.
Conidia of the fungus harvested from a fresh culture grown on artificial media, were directly mixed into nutrient broth (PDB potato dextrose broth). A DMSO solution of the test compounds was placed into a microtiter plate (96-well format) and the nutrient broth containing the fungal spores was added to it.
Fungicidal activity was evaluated on a 100-0 scale (100=no disease growth; 0=well completely covered by mycelium).

For the next assay, the system named is Septoria tritici. Put plainly: Example C2: mixtures against Septoria tritici (leaf blotch), liquid culture. Type of assay: cell-based. The following applies: single component.
From the text: as §1, §2, §3
Mycelia fragments or conidia suspensions of a fungus prepared either freshly from liquid cultures of the fungus or from cryogenic storage, are directly mixed into nutrient broth. DMSO solutions of the test compound (max. 10 mg/mL) are diluted with 0.025% Tween20 by a factor of 50 and 10 μl of this solution is pipetted into a microtiter plate (96-well format). The nutrient broth containing the fungal spores/mycelia fragments is then added to give an end concentration of the tested compound. The test plates are incubated in the dark at 24° C. and 96% relative humidity. The inhibition of fungal growth is determined photometrically after 2 to 7 days, depending on the pathosystem, and percent antifungal activity relative to the untreated check is calculated.
Conidia of the fungus from cryogenic storage were directly mixed into nutrient broth (PDB potato dextrose broth). A DMSO solution of the test compounds was placed into a microtiter plate (96-well format) and the nutrient broth containing the fungal spores was added to it.
The following mixture compositions at the reported concentration (in ppm) in tables C2-3 to C2-5 gave the following disease control in this test Septoria tritici (leaf blotch). Fungicidal activity was evaluated on a 100-0 scale (100=no disease growth; 0=well completely covered by mycelium).

Setting [1] is: single active ingredient, 4.5 g/ha.
Setting [2] is: 0.1 ppm, 100-0 scale (100=no disease growth).
Where [3] appears, read: 0.3 ppm, 100-0 scale (100=no disease growth).
Setting [4] is: Phakopsora pachyrhizi, foliar, applied alone, 9 g/ha, read-out: Observed Activity (% of untreated).
[5] abbreviates: Phakopsora pachyrhizi, foliar, applied alone, 18 g/ha, read-out: Observed Activity (% of untreated).
Setting [6] is: Phakopsora pachyrhizi, foliar, single active ingredient, 9 g/ha, read-out: Observed Activity (%).
[7] abbreviates: Phakopsora pachyrhizi, foliar, single active ingredient, 18 g/ha, read-out: Observed Activity (%).
The mark [8] stands for this setting: single active ingredient, 9 g/ha.
Where [9] appears, read: single active ingredient, 18 g/ha.
Setting [10] is: Phakopsora pachyrhizi, foliar, applied alone, 22.5 g/ha, read-out: Observed Activity (% of untreated).
Setting [11] is: Phakopsora pachyrhizi, foliar, applied alone, 45 g/ha, read-out: Observed Activity (% of untreated).
[12] abbreviates: Phakopsora pachyrhizi, foliar, applied alone, read-out: Observed Activity (% of untreated).
[13] abbreviates: Phakopsora pachyrhizi, foliar, single active ingredient, soybean, preventative, 100=no disease, read-out: Observed Activity (%).
The mark [14] stands for this setting: Phakopsora pachyrhizi, foliar, applied alone, 4.5 g/ha, read-out: Observed Activity (% of untreated).
The mark [15] stands for this setting: Phakopsora pachyrhizi, foliar, single active ingredient, 4.5 g/ha, read-out: Observed Activity (%).

The structures appear in SMILES notation. Where two headings read alike, the source gives them in different places.

Consider `Cn1cc(C(=O)Nc2cccc3c2[C@@H]2CC[C@H]3C2=C(Cl)Cl)c(C(F)F)n1` (racemic) [Benzovindiflupyr], for which the “Observed Activity (% of untreated)” value in the assay with Phakopsora pachyrhizi (applied alone, 2.25 g/ha) is 92%; in the assay on Phakopsora pachyrhizi (applied alone, 4.5 g/ha) it was 94%. Besides, the “Observed Activity (%)” value was 92% in the assay with Phakopsora pachyrhizi (single active ingredient, 2.25 g/ha) and 94% with Phakopsora pachyrhizi (setting [1]).
In the case of `CC(C)(C)[C@@H](O)[C@@H](Cc1ccc(Cl)cc1)n1cncn1` (racemic) [paclobutrazol], in the assay on Septoria glycines (setting [2]), the inhibition at 0.1 ppm turned out to be 0%. Further, in the assay with Septoria glycines (setting [3]), the inhibition at 0.3 ppm amounted to 50%.
In the case of `CNC(=O)C(=N/OC)/C(C)=C\COc1ccn(-c2ccc(Cl)cc2Cl)n1` [(Z,2E)-5-[1-(2,4-dichlorophenyl)pyrazol-3-yl]oxy-2-methoxyimino-N,3-dimethyl-pent-3-enamide], the inhibition at 9 g/ha in the assay on Phakopsora pachyrhizi (setting [4]) and in the assay with Phakopsora pachyrhizi (setting [6]) was 2% throughout. The inhibition at 18 g/ha in the assay on Phakopsora pachyrhizi (setting [5]) and in the assay with Phakopsora pachyrhizi (setting [7]) was 3% throughout.
For the compound `CO/C=C(/C(=O)OC)c1ccccc1Oc1cc(Oc2ccccc2C#N)ncn1` [Azoxystrobin], the “Observed Activity (% of untreated)” value in the assay on Phakopsora pachyrhizi (applied alone, 2.25 g/ha) is 0%; with Phakopsora pachyrhizi (applied alone, 4.5 g/ha), 15%; with Phakopsora pachyrhizi (applied alone, 9 g/ha) it was 23%; in the assay on Phakopsora pachyrhizi (applied alone, 18 g/ha) it was 9%. Besides, the results for the “Observed Activity (%)” value in the assay on Phakopsora pachyrhizi (setting [1]), with Phakopsora pachyrhizi (setting [8]) and in the assay with Phakopsora pachyrhizi (setting [9]) were 0%, 2% and 26%, respectively.
On to `CC(C1CC1)C(O)(Cn1cncn1)c1ccc(Cl)cc1` (stereo not drawn) [Cyproconazole], for which, in the assay on Phakopsora pachyrhizi (setting [10]), the inhibition at 22.5 g/ha stood at 51%. Further, the inhibition at 45 g/ha in the assay on Phakopsora pachyrhizi (setting [11]) is 52%.
With `CC1COC(Cn2cncn2)(c2ccc(Oc3ccc(Cl)cc3)cc2Cl)O1` (stereo not drawn) [Difenoconazole], the inhibition at 22.5 g/ha in the assay with Phakopsora pachyrhizi (setting [10]) worked out at 0%. For the same compound, the inhibition at 45 g/ha in the assay on Phakopsora pachyrhizi (setting [11]) was 0%.
As to `CC(Cc1ccc(C(C)(C)C)cc1)CN1CCCCC1` (stereo not drawn) [Fenpropidin, reference compound], in the assay with Phakopsora pachyrhizi (setting [12]), the inhibition at 225 g/ha came out at 64%, the inhibition at 450 g/ha is 61% and the inhibition at 900 g/ha came to 82%. In the assay on Phakopsora pachyrhizi (setting [13]), the inhibition at 225 g/ha stood at 64%, the inhibition at 450 g/ha worked out at 61% and the inhibition at 900 g/ha turned out to be 82%. Also, in the assay on Septoria glycines (setting [2]), the inhibition at 0.1 ppm is 0%. For the same compound, the inhibition at 0.3 ppm in the assay with Septoria glycines (setting [3]) came to 50%.
On to `CC(Cc1ccc(C(C)(C)C)cc1)CN1C[C@@H](C)O[C@@H](C)C1` (stereo partly drawn) [Fenpropimorph, reference compound], for which, in the assay on Phakopsora pachyrhizi (setting [12]), the inhibition at 225 g/ha worked out at 8%, the inhibition at 450 g/ha is 43% and the inhibition at 900 g/ha was 76%. Further, in the assay on Phakopsora pachyrhizi (setting [13]), the inhibition at 225 g/ha stood at 8%, the inhibition at 450 g/ha was determined as 43% and the inhibition at 900 g/ha was determined as 76%. In addition, the inhibition at 0.1 ppm in the assay with Septoria glycines (setting [2]) was 50%. The inhibition at 0.3 ppm in the assay on Septoria glycines (setting [3]) was 70%.
For the compound `Cc1cccc(-n2nnn(C)c2=O)c1COc1ccn(-c2ccc(Cl)cc2)n1` [Metyltetraprole], the “Observed Activity (% of untreated)” value in the assay on Phakopsora pachyrhizi (applied alone, 9 g/ha) was 2%; with Phakopsora pachyrhizi (applied alone, 18 g/ha), 2%. The “Observed Activity (%)” value in the assay with Phakopsora pachyrhizi (setting [8]) and in the assay with Phakopsora pachyrhizi (setting [9]) was 2% each time.
`OC(Cc1ccccc1Cl)(Cn1nc[nH]c1=S)C1(Cl)CC1` (stereo not drawn) [Prothioconazole]: the inhibition at 22.5 g/ha in the assay on Phakopsora pachyrhizi (setting [10]) was 74%. In the assay with Phakopsora pachyrhizi (setting [11]), the inhibition at 45 g/ha came to 76%.
On to `CON(C(=O)c1cn(C)nc1C(F)F)C(C)Cc1c(Cl)cc(Cl)cc1Cl` (stereo not drawn) [Pydiflumetofen], for which the “Observed Activity (% of untreated)” value in the assay with Phakopsora pachyrhizi (applied alone, 22.5 g/ha) is 0%; in the assay with Phakopsora pachyrhizi (applied alone, 45 g/ha), 4%.
With `COC(=O)N(OC)c1ccccc1COc1ccn(-c2ccc(Cl)cc2)n1` [Pyraclostrobin], the inhibition at 4.5 g/ha with Phakopsora pachyrhizi (setting [14]) and with Phakopsora pachyrhizi (setting [15]) was 1% in each case. Further, the inhibition at 9 g/ha in the assay with Phakopsora pachyrhizi (setting [4]) and with Phakopsora pachyrhizi (setting [6]) was 1% each time. In addition, the inhibition at 18 g/ha with Phakopsora pachyrhizi (setting [5]) and with Phakopsora pachyrhizi (setting [7]) was 0% throughout.
For `CON=C(C(=O)OC)c1ccccc1CON=C(C)c1cccc(C(F)(F)F)c1` [Trifloxystrobin], the inhibition at 2.25 g/ha in the assay on Phakopsora pachyrhizi (Phakopsora pachyrhizi, foliar, applied alone, 2.25 g/ha, read-out: Observed Activity (% of untreated)) is 0%. Moreover, the results for the inhibition at 4.5 g/ha in the assay with Phakopsora pachyrhizi (setting [14]) and in the assay on Phakopsora pachyrhizi (setting [15]) were 3% and 0%, respectively. Also, the inhibition at 9 g/ha in the assay with Phakopsora pachyrhizi (setting [4]) was 0%; in the assay on Phakopsora pachyrhizi (setting [6]), 1%. Further, the results for the inhibition at 18 g/ha with Phakopsora pachyrhizi (setting [5]) and in the assay on Phakopsora pachyrhizi (setting [7]) were 19% and 33%, respectively.
Regarding `O=C(NCCc1ncc(C(F)(F)F)cc1Cl)c1ccccc1C(F)(F)F` [fluopyram], the inhibition at 0.1 ppm in the assay on Septoria glycines (setting [2]) came out at 0%. Moreover, the inhibition at 0.3 ppm with Septoria glycines (setting [3]) amounted to 50%.
On the same counts, the results for `OC(Cn1cncn1)(c1ccc(F)cc1)c1ccccc1F` (stereo not drawn) [flutriafol] are 20% and 70%.
For the compound `Cn1cc(C(=O)Nc2ccccc2-c2cc(F)c(F)c(F)c2)c(C(F)F)n1` [fluxapyroxad], the “Activity (%)” value was found to be 50% in the assay on Septoria glycines (0.1 ppm), 50% in the assay on Septoria glycines (setting [2]), 70% with Septoria glycines (0.3 ppm) and 70% in the assay with Septoria glycines (setting [3]).
With `CCCCC(O)(Cn1cncn1)c1ccc(Cl)cc1Cl` (stereo not drawn) [hexaconazole], in the assay on Septoria tritici (Zymoseptoria tritici, 0.1 ppm, 100-0 scale (100=no disease growth)), the inhibition at 0.1 ppm came out at 70%.
`CCCC1COC(Cn2cncn2)(c2ccc(Cl)cc2Cl)O1` (stereo not drawn) [propiconazole]: the inhibition at 0.3 ppm with Septoria tritici (Zymoseptoria tritici, 0.3 ppm, 100-0 scale, read-out: Activity (%)) worked out at 70%.
Consider `CC1(C)N=C(c2cnc3ccccc3c2)c2ccccc2C1(F)F` [quinofumelin], for which the “Activity (%)” value in the assay on Septoria tritici (0.3 ppm, 100-0 scale) came to 0%.
Turning to `S1SSSSSSS1` [sulphur], in the assay on Septoria glycines (setting [3]), the inhibition at 0.3 ppm turned out to be 0%.
Consider `CC(C)(C)C(O)(CCc1ccc(Cl)cc1)Cn1cncn1` (stereo not drawn) [tebuconazole], for which, in the assay on Septoria glycines (setting [2]), the inhibition at 0.1 ppm is 70%.
Regarding `CCOC(=O)C1CC(=O)C(=C(O)C2CC2)C(=O)C1` (stereo not drawn) [trinexapac-ethyl], in the assay on Septoria glycines (setting [3]), the inhibition at 0.3 ppm amounted to 0%.
